Experimental data reported in patent publication US5998377A, “Means for treating prostate cancer” (ASTA Medica Aktiengesellschaft, priority 1998, dated 1999).
Non-standard residues stand in square brackets, D forms with d. Residues, ends and D or L forms follow the SMILES beside them. dPhe(4-Cl) = N[C@H](Cc1ccc(Cl)cc1)C(=O)O; d2Nal = N[C@H](Cc1ccc2ccccc2c1)C(=O)O; dCit = NC(=O)NCCC[C@@H](N)C(=O)O; d3Pal = N[C@H](Cc1cccnc1)C(=O)O

What was measured:
[1] = test system: BPH patients; assay: Clinical therapy of BPH with Cetrorelix (Example 1); format: in vivo, human; settings: therapy regimen of 4 to 8 weeks
Procedure: The invention will be explained in detail using the following clinical results:
Cetrorelix is administered in a dose of 0.5 mg to 2 mg daily for 4 to 8 weeks for the therapy of BPH. A dose of 5 mg to 30 mg, dispensed once per week or every 10 days also over a time period of 4 to 8 weeks as well as one every two weeks or one injection per month of 20 mg to 60 mg can also decisively improve the clinical symptoms and signs. […] The prostate volume decreases by 20 to 40% during the treatment time of 4 to 8 weeks. […] In addition, at least 30% of the patients achieve an improvement of the urine flow of 6 ml/sec with this therapy. This is almost equivalent to an improvement like that associated with the golden standard operation, and in considerably shorter time. […] These clinical benefits continue for at least 3 to 6 months after therapy. This allows a long-term therapy of BPH with only an intermittent treatment of 2 to max. 4 injection cycles over 4 to 8 weeks.

[2] = test system: prostate carcinoma patients; settings: cited from earlier work
[3] = test system: BPH patients; settings: cited from earlier work
[4] = prostate carcinoma patients, end of the 6 weeks of therapy
[5] = BPH patients, 500 μg every 12 hours for 4 weeks

SMILES: CC(=O)N[C@H](Cc1ccc2ccccc2c1)C(=O)N[C@H](Cc1ccc(Cl)cc1)C(=O)N[C@H](Cc1cccnc1)C(=O)N[C@@H](CO)C(=O)N[C@@H](Cc1ccc(O)cc1)C(=O)N[C@H](CCCNC(N)=O)C(=O)N[C@@H](CC(C)C)C(=O)N[C@@H](CCCNC(=N)N)C(=O)N1CCC[C@H]1C(=O)N[C@H](C)C(N)=O [Cetrorelix] (Ac-[d2Nal][dPhe(4-Cl)][d3Pal]SY[dCit]LRP[dA]-NH2)
- increase of the peak flow of the urine [1]: approximately 3 ml/sec
- patients achieving an improvement of the urine flow of 6 ml/sec [1]: at least 30%
- quality of life [1]: significant improvements as regards quality of life
- sexual performance [1]: No limitations in sexual performance are observed
- testosterone decrease [1]: Submaximal decreases of testosterone occur, but these are above those levels associated with castration
- testosterone levels, initially ([2]; prostate carcinoma patients (all patients), 500 μg every 12 hours, initially): lowering in testosterone levels to a castration level
- overall condition of the patient [2, 4]: considerable improvement
- testosterone values at the end of therapy [2, 4]: at the castration levels
- testosterone levels, initially ([3]; BPH patients (all patients), 500 μg every 12 hours, initially): lowering in testosterone levels to a castration level
- prostate volume [3, 5]: a decrease in prostate volume
- symptoms of dysuria [3, 5]: distinct decrease of the symptoms of dysuria
- testosterone levels during treatment ([3]; BPH patients, 500 μg every 12 hours for 4 weeks, no castration values during the last three weeks): fluctuated at subnormal levels
